Data reported in patent US20080045514A1 (Cytovia, Inc., priority 2006, published 2008).
Read-outs that look alike come from different tables or passages of the source.

How the values were obtained:
Format in all cases: cell-based
[1] = tested on: human colon carcinoma cell line HCT116; test: Caspase cascade activation (EC50), HCT116; conditions: Homo sapiens, HCT-116, HCT116 cells
Experimental: (§1) Human breast cancer cell lines T-47D, human hepatocellular carcinoma cell line SNU398, human colon carcinoma cell line HCT116, human cancer cell line H1299, human Burkitt's lymphoma cell line Namalwa, human lymphoma cell line Raji, and human B cell lymphoblastoid cell line Ramos were grown according to media component mixtures designated by American Type Culture Collection+10% FCS (Invitrogen Corporation), in a 5% CO2-95% humidity incubator at 37° C. T-47D and H1299 cells were maintained at a cell density between 50 and 80% confluency at a cell density of 0.1 to 0.6×10^6 cells/mL. Cells were harvested at 600×g and resuspended at 0.65×10^6 cells/mL into appropriate media+10% FCS. An aliquot of 22.5 μL of cells was added to a well of a 384-well microtiter plate containing 2.5 μL of a 10% DMSO in RPMI-1640 media solution containing 0.16 to 100 μM of 3-(2-chlorophenyl)-6-(3,4-methylenedioxyphenyl)-7H-[1,2,4]triazolo[3,4-b][1,3,4]thiadiazine or other test compound (0.016 to 10 μM final). An aliquot of 22.5 μL of cells was added to a well of a 384-well microtiter plate containing 2.5 μL of a 10% DMSO in RPMI-1640 media solution without test compound as the control sample. The samples were mixed by agitation and then incubated at 37° C. for 48 h in a 5% CO2-95% humidity incubator. After incubation, the samples were removed from the incubator and 25 μL of a solution containing 14 μM of N—(Ac-DEVD)-N′-ethoxycarbonyl-R110 (SEQ ID No.:1) fluorogenic substrate (Cytovia, Inc.; WO99/18856), 20% sucrose (Sigma), 20 mM DTT (Sigma), 200 mM NaCl (Sigma), 40 mM Na PIPES buffer pH 7.2 (Sigma), and 500 μg/mL lysolecithin (Calbiochem) was added. The samples were mixed by agitation and incubated at room temperature. Using a fluorescent plate reader (Model SPECTRAfluor Plus, Tecan), an initial reading (T=0) was made approximately 1-2 min after addition of the substrate solution, employing excitation at 485 nm and emission at 530 nm, to determine the background fluorescence of the control sample. After the 3 h incubation, the samples were read for fluorescence as above (T=3 h). Calculation: The Relative Fluorescence Unit values (RFU) were used to calculate the sample readings as follows: RFU(T=3H)−Control RFU(T=0)=Net RFU(T=3h) The activity of caspase cascade activation was determined by the ratio of the net RFU value for 3-(2-chlorophenyl)-6-(3,4-methylenedioxyphenyl)-7H-[1,2,4]triazolo[3,4-b][1,3,4]thiadiazine (Example P) or other test compound to that of control samples. The EC50 (nM) was determined by a sigmoidal dose-response calculation (Prism 3.0, GraphPad Software Inc.).

[2] = tested on: human breast cancer cell line T-47D; test: Caspase cascade activation (EC50), T-47D; conditions: Homo sapiens, T47D cells
Experimental: as §1

[3] = tested on: human Burkitt's lymphoma cell line Namalwa; test: Caspase cascade activation (EC50), Namalwa; conditions: Homo sapiens, Burkitts lymphoma cell, Namalwa cells
Experimental: as §1

[4] = tested on: human hepatocellular carcinoma cell line SNU398; test: Caspase cascade activation (EC50), SNU398; conditions: Homo sapiens, SNU-398, SNU398 cells
Experimental: as §1

[5] = caspase cascade activation, read-out: caspase potency (EC50) HCT116
[6] = caspase cascade activation, read-out: caspase potency (EC50) T47D
[7] = caspase cascade activation, read-out: caspase potency (EC50) Namalwa
[8] = caspase cascade activation, read-out: caspase potency (EC50) SNU398
[9] = read-out: Caspase potency (EC50) HCT116
[10] = read-out: Caspase potency (EC50) T47D
[11] = read-out: Caspase potency (EC50) Namalwa
[12] = read-out: Caspase potency (EC50) SNU398

Row | EC50 [1, 5] [nM] | EC50 [2, 6] [nM] | EC50 [3, 7] [nM] | EC50 [4, 8] [nM] | EC50 [1, 9] [nM] | EC50 [2, 10] [nM] | EC50 [3, 11] [nM] | EC50 [4, 12] [nM] | Compound
1 | 58 | 175 | 61 | 43 | – | – | – | – | COc1cc(-c2nnc3n2N=C(c2ccc(N(C)C)cc2)CS3)cc(OC)c1OC [Example 67, 6-(4-Dimethylaminophenyl)-3-(3,4,5-trimethoxyphenyl)-7H-[1,2,4]triazolo[3,4-b][1,3,4]thiadiazine]
2 | > 10000 | > 10000 | > 10000 | > 10000 | – | – | – | – | Cc1ccc(C2=Nn3c(nnc3-c3ccccc3[S+](C)[O-])SC2)cc1 (stereo not drawn) [Example 72, 3-(2-Methylsulfinylphenyl)-6-(4-methylphenyl)-7H-[1,2,4]triazolo[3,4-b][1,3,4]thiadiazine]
3 | > 10000 | > 10000 | > 10000 | > 1000 | – | – | – | – | Cc1ccc(C2=Nn3c(nnc3-c3ccccc3S(C)(=O)=O)SC2)cc1 [Example 73, 3-(2-Methylsulfonylphenyl)-6-(4-methylphenyl)-7H-[1,2,4]triazolo[3,4-b][1,3,4]thiadiazine]
4 | 557 | > 10000 | 507 | 529 | – | – | – | – | Cc1ccc(C2=Nn3c(nnc3-c3ccccc3N)SC2)cc1 [Example 74, 3-(2-Aminophenyl)-6-(4-methylphenyl)-7H-[1,2,4]triazolo[3,4-b][1,3,4]thiadiazine]
5 | 124 | 259 | 73 | 51 | – | – | – | – | COc1ccccc1-c1nnc2n1N=C(c1cc(Br)c(N)c(Br)c1)CS2 [Example 78, 6-(4-Amino-3,5-dibromophenyl)-3-(2-methoxyphenyl)-7H-[1,2,4]triazolo[3,4-b][1,3,4]thiadiazine]
6 | 1250 | 907 | 304 | 562 | – | – | – | – | COc1ccccc1-c1nnc2n1N=C(c1cc(I)c(N)c(I)c1)CS2 [Example 79, 6-(4-Amino-3,5-diiodophenyl)-3-(2-methoxyphenyl)-7H-[1,2,4]triazolo[3,4-b][1,3,4]thiadiazine]
7 | 370 | 605 | 497 | 500 | – | – | – | – | COc1ccccc1-c1nnc2n1N=C(c1cccc(C)c1)CS2 [Example 82, 3-(2-Methoxyphenyl)-6-(3-methylphenyl)-7H-[1,2,4]triazolo[3,4-b][1,3,4]thiadiazine]
8 | 683 | 2540 | 332 | 523 | – | – | – | – | Cc1ccc(C2=Nn3c(nnc3-c3ccoc3C)SC2)cc1 [Example 83, 3-(2-Methylfuran-3-yl)-6-(4-methylphenyl)-7H-[1,2,4]triazolo[3,4-b][1,3,4]thiadiazine]
9 | 298 | 274 | 209 | 253 | – | – | – | – | COC(=O)c1ccc(C2=Nn3c(nnc3-c3ccccc3OC)SC2)cc1 [Example 85, 6-(4-Methoxycarbonylphenyl)-3-(2-methoxyphenyl)-7H-[1,2,4]triazolo[3,4-b][1,3,4]thiadiazine]
10 | 1320 | 525 | 320 | 380 | – | – | – | – | COc1ccccc1-c1nnc2n1N=C(c1ccn(C)c1)CS2 [Example 86, 3-(2-Methoxyphenyl)-6-(1-methyl-1H-pyrrol-3-yl)-7H-[1,2,4]triazolo[3,4-b][1,3,4]thiadiazine]
11 | 5090 | 3330 | 2280 | 2550 | – | – | – | – | COc1ccccc1-c1nnc2n1N=C(c1ccc(C#N)cc1)CS2 [Example 87, 6-(4-Cyanophenyl)-3-(2-methoxyphenyl)-7H-[1,2,4]triazolo[3,4-b][1,3,4]thiadiazine]
12 | 2800 | 5330 | 1530 | 2530 | – | – | – | – | COc1ccccc1-c1nnc2n1NC(c1ccc(C)cc1)CS2 (stereo not drawn) [Example 88, 5,6-Dihydro-3-(2-methoxyphenyl)-6-(4-methylphenyl)-7H-[1,2,4]triazolo[3,4-b][1,3,4]thiadiazine]
13 | > 10000 | > 10000 | > 10000 | > 10000 | – | – | – | – | COc1ccccc1-c1nnc2n1N=C(c1ccc(C(=O)O)cc1)CS2 [Example 89, 6-(4-Carboxyphenyl)-3-(2-Methoxyphenyl)-7H-[1,2,4]triazolo[3,4-b][1,3,4]thiadiazine]
14 | 492 | 915 | 303 | 412 | – | – | – | – | Cc1cc(Cl)ccc1-c1nnc2n1N=C(c1ccc(C)c([N+](=O)[O-])c1)CS2 [Example 90, 3-(4-Chloro-2-methylphenyl)-6-(4-methyl-3-nitrophenyl)-7H-[1,2,4]triazolo[3,4-b][1,3,4]thiadiazine]
15 | 30 | 63 | 16 | 28 | – | – | – | – | Cc1ccc(C2=Nn3c(nnc3-c3ccc(Cl)cc3C)SC2)cc1N [Example 91, 6-(3-Amino-4-methylphenyl)-3-(4-chloro-2-methylphenyl)-7H-[1,2,4]triazolo[3,4-b][1,3,4]thiadiazine]
16 | > 10000 | > 10000 | > 10000 | > 10000 | – | – | – | – | Cc1ccc(C2=Nn3c(nnc3-c3ccc[nH]3)SC2)cc1 [Example 92, 6-(4-Methylphenyl)-3-(1H-pyrrol-2-yl)-7H-[1,2,4]triazolo[3,4-b][1,3,4]thiadiazine]
17 | > 10000 | > 10000 | > 10000 | > 10000 | – | – | – | – | Cc1ccc(C2=Nn3c(nnc3-c3snnc3C)SC2)cc1 [Example 93, 3-(4-Methyl-1,2,3-thiadiazol-5-yl)-6-(4-methylphenyl)-7H-[1,2,4]triazolo[3,4-b][1,3,4]thiadiazine]
18 | 5510 | 2630 | 1290 | 1440 | – | – | – | – | Cc1ccc(C2=Nn3c(nnc3-c3cccn3C)SC2)cc1 [Example 94, 3-(1-Methyl-1H-pyrrol-2-yl)-6-(4-methylphenyl)-7H-[1,2,4]triazolo[3,4-b][1,3,4]thiadiazine]
19 | – | – | – | – | 693 | 2700 | 328 | 478 | Cc1ccc(C2=Nn3c(nnc3-c3cc([N+](=O)[O-])cn3C)SC2)cc1 [Example 95, 3-(1-Methyl-4-nitro-1H-pyrrol-2-yl)-6-(4-methylphenyl)-7H-[1,2,4]triazolo[3,4-b][1,3,4]thiadiazine]
20 | – | – | – | – | 79 | 136 | 31 | 35 | COc1ccccc1-c1nnc2n1N=C(c1cc(Br)c3c(c1)CCN3)CS2 [Example 96, 6-(7-Bromoindolin-5-yl)-3-(2-methoxyphenyl)-7H-[1,2,4]triazolo[3,4-b][1,3,4]thiadiazine]
21 | – | – | – | – | 8 | 34 | 4 | 6 | COc1cc(Cl)ccc1-c1nnc2n1N=C(c1ccc(C)cc1)CS2 [Example 97, 3-(4-Chloro-2-methoxyphenyl)-6-(4-methylphenyl)-7H-[1,2,4]triazolo[3,4-b][1,3,4]thiadiazine]
22 | – | – | – | – | 98 | 166 | 66 | 59 | Cc1ccc(C2=Nn3c(nnc3-c3c(C)nc4ccccn34)SC2)cc1 [Example 98, 3-(2-Methyl-imidazo[1,2-a]pyridin-3-yl)-6-(4-methylphenyl)-7H-[1,2,4]triazolo[3,4-b][1,3,4]thiadiazine]
23 | – | – | – | – | 1780 | 5420 | 1180 | 1260 | Cc1ccc(C2=Nn3c(nnc3-c3cc(N)cn3C)SC2)cc1 [Example 99, 3-(1-Methyl-4-amino-1H-pyrrol-2-yl)-6-(4-methylphenyl)-7H-[1,2,4]triazolo[3,4-b][1,3,4]thiadiazine]
24 | 5330 | 3650 | 2830 | 3780 | – | – | – | – | COc1ccccc1-c1nnc2n1N=C(c1ccccc1)CS2 [Example K3]
